One assay concerns the target hMC1-R (Homo sapiens (Human), UniProt Q01726). The experiment in a line: Functional assay for agonist activity at hMC1-R. Format: cell-based. The settings on record: intrinsic activity.
The target in the next assay is hMC4-R (Homo sapiens (Human), UniProt P32245). The experiment in a line: Assay for agonist activity (cAMP accumulation in HEK-293 cells). The settings on record: for Emax: HEK293; for functional classification at MC4-R: agonist = intrinsic activity 70% or higher, partial agonist 10-70%. Format: cell-based.
Assay [1] is described as follows: Food intake and body weight change in rats. It is filed as in vivo, rat. The settings on record: for food intake / rate of change in body weight: rat feeding study, 0.3 and 1 mg/kg; for decrease in food consumption compared to control: rats. As to the method:
Change in food intake and body weight was evaluated for selected peptides administered by intravenous (IV) or subcutaneous injection routes. Male Sprague-Dawley rats were obtained from Hilltop Lab Animals, Inc. (Scottsdale, Pa.) or other vendors. Animals were individually housed in conventional polystyrene hanging cages and maintained on a controlled 12 hour on/off light cycle. Water and pelleted food was provided ad libitum. The rats were dosed IV with vehicle or selected peptides (0.3 to 1.0 mg/kg), or dosed subcutaneously with vehicle or selected peptides (doses up to 30 mg/kg). […] The changes in body weight and food intake for the 48 hour and 72 hour periods after dosing can also be measured to determine reversal of changes in body weight and food intake effects back to baseline levels.

The nature of assay [2]: Induction of penile erection in male rats. Format: in vivo, rat.
Description: The ability of peptides of the present invention to induce penile erection (PE) in male rats were evaluated with selected peptides. Male Sprague-Dawley rats weighing 250-300 g were kept on a 12 hour on/off light cycle with food and water ad libitum. All behavioral studies were performed between 9 a.m. and 4 p.m. […] Rats are observed for one hour, and the number of yawns, grooming bouts and PEs are recorded in 10-minute bins.
The mark [3] stands for this setting: intrinsic activity, read-out: hMC4-R Emax (%).
Where [4] appears, read: 1 mg/kg, 0-2, 0-4 and 0-20 hour periods.
Setting [5] is: NDP-α-MSH is 100%, read-out: intrinsic activity at MC4-R.

Where two headings read alike, the source gives them in different places. Peptide text beside a SMILES is read from it.

Sequence of hMC4-R (P32245 whole entry): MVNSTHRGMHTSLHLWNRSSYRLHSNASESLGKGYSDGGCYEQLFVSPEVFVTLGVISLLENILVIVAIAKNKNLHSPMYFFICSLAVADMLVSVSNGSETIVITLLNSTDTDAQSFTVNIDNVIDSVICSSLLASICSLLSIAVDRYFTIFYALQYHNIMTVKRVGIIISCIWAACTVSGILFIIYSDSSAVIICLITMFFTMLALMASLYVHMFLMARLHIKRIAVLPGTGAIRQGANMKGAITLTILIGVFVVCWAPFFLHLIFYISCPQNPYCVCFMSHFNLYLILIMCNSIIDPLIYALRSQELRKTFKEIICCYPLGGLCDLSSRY
Sequence of hMC1-R (Q01726 whole entry): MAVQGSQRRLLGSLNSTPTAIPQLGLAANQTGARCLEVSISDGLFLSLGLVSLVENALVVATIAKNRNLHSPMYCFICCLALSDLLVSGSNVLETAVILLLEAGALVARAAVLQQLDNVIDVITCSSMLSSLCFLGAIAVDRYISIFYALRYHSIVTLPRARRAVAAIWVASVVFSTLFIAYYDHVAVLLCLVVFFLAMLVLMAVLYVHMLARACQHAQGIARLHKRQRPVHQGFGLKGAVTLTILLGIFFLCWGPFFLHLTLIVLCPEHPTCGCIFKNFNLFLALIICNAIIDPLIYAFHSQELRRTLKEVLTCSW
Description for hMC4-R: Accumulation of intracellular cAMP was examined as a measure of the ability of the peptides of the present invention to elicit a functional response in HEK-293 cells that express MC4-R. Confluent HEK-293 cells that express recombinant hMC4-R were detached from culture plates by incubation in enzyme-free cell dissociation buffer. Dispersed cells were suspended in Earle's Balanced Salt Solution containing 10 mM HEPES (pH 7.5), 1 mM MgCl2, 1 mM glutamine, 0.5% albumin and 0.3 mM 3-isobutyl-1-methyl-xanthine (IBMX), a phosphodiesterase inhibitor. […] Cells were exposed for 15 minutes at 37° C. to peptides of the present invention dissolved in DMSO (final DMSO concentration of 1%) at a concentration range of 0.05-5000 nM in a total assay volume of 200 μL. […] Data analysis was performed by nonlinear regression analysis with Graph-Pad Prism® software. The maximum efficacies of the test peptides of the present invention were compared to that achieved by the reference melanocortin agonist NDP-αMSH.

On to `CC(=O)N[C@@H](CCCNC(=N)N)C(=O)N[C@H]1CCCCNC(=O)C[C@@H](C(N)=O)NC(=O)[C@H](Cc2c[nH]c3ccccc23)NC(=O)[C@H](CCCNC(=N)N)NC(=O)[C@@H](Cc2ccccc2)NC(=O)[C@H](CC(N)=O)NC1=O` [compound 155, Ac-Arg-cyclo(Lys-Asn- D-Phe-Arg-Trp-Asp)- NH2] (HELM PEPTIDE1{[ac].R.K.N.[dF].R.W.D.[am]}$PEPTIDE1,PEPTIDE1,3:R3-8:R3$$$V2.0), for which the Emax on hMC1-R came out at 91%; on hMC4-R (setting [3]), 97%.
For `CC(=O)N[C@@H](CCCNC(=N)N)C(=O)N[C@H]1CC(=O)NCCCC[C@@H](C(N)=O)NC(=O)[C@H](Cc2c[nH]c3ccccc23)NC(=O)[C@H](CCCNC(=N)N)NC(=O)[C@@H](Cc2ccccc2)NC(=O)[C@H](C(C)C)NC1=O` [Peptide No. 16, Ac-Arg-cyclo(Asp-Val- D-Phe-Arg-Trp-Lys)- NH2], the food intake result in assay [1] is “reduce food intake”. Moreover, the “rate of change in body weight” value in assay [1] is reported as “decrease the rate of change in body weight”. The “decrease in food consumption compared to control” value (“decrease in food consumption” for short) in assay [1] (0.3 mg/kg, 0-2 and 0-4 hour periods) is reported as “statistically significant”; in assay [1] (setting [4]), “statistically significant”. Besides, the Emax at hMC4-R (setting [5]) amounted to 42%. Moreover, the “functional classification at MC4-R” value at hMC4-R is listed as “partial agonist”.
On to `CC(=O)N[C@@H](CCCNC(=N)N)C(=O)N[C@H]1CCCC(=O)NCC[C@@H](C(N)=O)NC(=O)[C@H](Cc2c[nH]c3ccccc23)NC(=O)[C@H](CCCNC(=N)N)NC(=O)[C@@H](Cc2ccccc2)NC(=O)[C@H](Cc2c[nH]cn2)NC1=O` [compound 126, Ac-Arg-cyclo(hGlu-His- D-Phe-Arg-Trp-Dab)- NH2], for which the Emax at hMC4-R (setting [5]) was found to be 101%. Also, the “functional classification at MC4-R” value at hMC4-R is given as “agonist”.
In the case of `CC(=O)N[C@@H](CCCNC(=N)N)C(=O)N[C@H]1CCCNC(=O)CC[C@@H](C(N)=O)NC(=O)[C@H](Cc2c[nH]c3ccccc23)NC(=O)[C@H](CCCNC(=N)N)NC(=O)[C@@H](Cc2ccccc2)NC(=O)[C@H](CCC(N)=O)NC1=O` [compound 150, Ac-Arg-cyclo(Orn-Gln- D-Phe-Arg-Trp-Glu)- NH2], the Emax at hMC1-R stood at 89%.
With `CC(=O)N[C@@H](CCCNC(=N)N)C(=O)N[C@H]1CCC(=O)NCCC[C@@H](C(N)=O)NC(=O)[C@H](Cc2c[nH]c3ccccc23)NC(=O)[C@H](CCCNC(=N)N)NC(=O)[C@@H](Cc2ccccc2)NC(=O)[C@H](CC(N)=O)NC1=O` [compound 161, Ac-Arg-cyclo/(Glu-Asn- D-Phe-Arg-Trp-Orn)- NH2], the Emax came to 85% on hMC1-R and 91% on hMC4-R (setting [3]).
`CC(=O)N[C@@H](CCCNC(=N)N)C(=O)N[C@H]1CC(=O)NCCCC[C@@H](C(N)=O)NC(=O)[C@H](Cc2c[nH]c3ccccc23)NC(=O)[C@H](CCCNC(=N)N)NC(=O)[C@@H](Cc2ccccc2)NC(=O)[C@H](Cc2c[nH]cn2)NC1=O` [Peptide No. 1, Ac-Arg-cyclo(Asp-His- D-Phe-Arg-Trp-Lys)- NH2]: the “observed spontaneous erections compared to vehicle” value in assay [2] (IV, 0.3 or 1 mg/kg) is given as “statistically significant increase”. For the same compound, in assay [1], the food intake result was “reduce food intake” and the “rate of change in body weight” value was “decrease the rate of change in body weight”. Besides, the “decrease in food consumption” value in assay [1] (0.3 mg/kg, 0-2, 0-4 and 0-20 hour periods) was “statistically significant”. The “decrease in food consumption” value in assay [1] (setting [4]) was “statistically significant”. The Emax on hMC4-R (setting [5]) is 91%. On hMC4-R, the “functional classification at MC4-R” value was “agonist”.
In the case of `CC(=O)N[C@@H](CCCNC(=N)N)C(=O)N[C@H]1CCNC(=O)CCC[C@@H](C(N)=O)NC(=O)[C@H](Cc2c[nH]c3ccccc23)NC(=O)[C@H](CCCNC(=N)N)NC(=O)[C@@H](Cc2ccccc2)NC(=O)[C@H](Cc2c[nH]cn2)NC1=O` [compound 128, Ac-Arg-cyclo(Dab-His- D-Phe-Arg-Trp-hGlu)- NH2], the Emax on hMC4-R (setting [5]) turned out to be 95%. Moreover, the “functional classification at MC4-R” value at hMC4-R is recorded as “agonist”.
For the compound `CC(=O)N[C@@H](CCCNC(=N)N)C(=O)N[C@H]1CCCC(=O)NCC[C@@H](C(N)=O)NC(=O)[C@H](Cc2c[nH]c3ccccc23)NC(=O)[C@H](CCCNC(=N)N)NC(=O)[C@@H](Cc2ccccc2)NC(=O)[C@H](CCN)NC1=O` [compound 127, Ac-Arg-cyclo(hGlu-Dab- D-Phe-Arg-Trp-Dab)- NH2], the Emax at hMC4-R (setting [5]) was determined as 98%. The “functional classification at MC4-R” value on hMC4-R is recorded as “agonist”.
`CC(=O)N[C@@H](CCCNC(=N)N)C(=O)N[C@H]1CCCNC(=O)CC[C@@H](C(N)=O)NC(=O)[C@H](Cc2c[nH]c3ccccc23)NC(=O)[C@H](CCCNC(=N)N)NC(=O)[C@@H](Cc2ccccc2)NC(=O)[C@H](CC(N)=O)NC1=O` [compound 154, Ac-Arg-cyclo(Orn-Asn- D-Phe-Arg-Trp-Glu)- NH2] registered an Emax on hMC1-R of 87%.
In turn, `CC(=O)N[C@H](CCCNC(=N)N)C(=O)N[C@H]1CCCNC(=O)CC[C@@H](C(N)=O)NC(=O)[C@H](Cc2c[nH]c3ccccc23)NC(=O)[C@H](CCCNC(=N)N)NC(=O)[C@@H](Cc2ccccc2)NC(=O)[C@H](CC(N)=O)NC1=O` [compound 156, Ac-D-Arg-cyclo(Orn- Asn-D-Phe-Arg-Trp- Glu)-NH2] showed an Emax on hMC1-R of 81%.
For `CC(=O)N[C@H](CCCNC(=N)N)C(=O)N[C@H]1CCCNC(=O)CC[C@@H](C(N)=O)NC(=O)[C@H](Cc2c[nH]c3ccccc23)NC(=O)[C@H](CCCNC(=N)N)NC(=O)[C@@H](Cc2ccccc2)NC(=O)[C@H](CCC(N)=O)NC1=O` [compound 152, Ac-D-Arg-cyclo(Orn- Gln-D-Phe-Arg-Trp- Glu)-NH2], the results for the Emax at hMC1-R and on hMC4-R (setting [3]) were 85% and 89%, respectively.
For `CC(=O)N[C@@H](CCCNC(=N)N)C(=O)N[C@H]1CCCC(=O)NCC[C@@H](C(N)=O)NC(=O)[C@H](Cc2c[nH]c3ccccc23)NC(=O)[C@H](CCCNC(=N)N)NC(=O)[C@@H](Cc2ccccc2)NC(=O)[C@H](CC(N)=O)NC1=O` [compound 160, Ac-Arg-cyclo(hGlu-Asn- D-Phe-Arg-Trp-Dab)- NH2] (HELM PEPTIDE1{[ac].R.[O=C([C@H](CCCC(=O)[*:3])N[*:1])[*:2]].N.[dF].R.W.[Dab].[am]}$PEPTIDE1,PEPTIDE1,3:R3-8:R3$$$V2.0), the results for the Emax at hMC1-R and at hMC4-R (setting [3]) were 95% and 98%, respectively.
`CC(=O)N[C@@H](CCCNC(=N)N)C(=O)N[C@H]1CCNC(=O)CCC[C@@H](C(N)=O)NC(=O)[C@H](Cc2c[nH]c3ccccc23)NC(=O)[C@H](CCCNC(=N)N)NC(=O)[C@@H](Cc2ccccc2)NC(=O)[C@H](CCN)NC1=O` [compound 129, Ac-Arg-cyclo(Dab-Dab- D-Phe-Arg-Trp-hGlu)- NH2]: the Emax at hMC4-R (setting [5]) was determined as 96%. Also, the “functional classification at MC4-R” value on hMC4-R is given as “agonist”.
On to `CC(=O)N[C@@H](CCCNC(=N)N)C(=O)N[C@H]1CCNC(=O)CCC[C@@H](C(N)=O)NC(=O)[C@H](Cc2c[nH]c3ccccc23)NC(=O)[C@H](CCCNC(=N)N)NC(=O)[C@@H](Cc2ccccc2)NC(=O)[C@H](CCC(N)=O)NC1=O` [compound 159, Ac-Arg-cyclo(Dab-Gln- D-Phe-Arg-Trp-hGlu)- NH2], for which the Emax was found to be 98% at hMC1-R and 99% at hMC4-R (setting [3]).
For `CC(=O)N[C@H](CCCNC(=N)N)C(=O)N[C@H]1CC(=O)NCCCC[C@@H](C(N)=O)NC(=O)[C@H](Cc2c[nH]c3ccccc23)NC(=O)[C@H](CCCNC(=N)N)NC(=O)[C@@H](Cc2ccccc2)NC(=O)[C@H](CCC(N)=O)NC1=O` [compound 71, Ac-D-Arg-cyclo(Asp- Gln-D-Phe-Arg-Trp- Lys)-NH2], in that order: 88% and 89%.
As to `CC(=O)N[C@@H](CCCNC(=N)N)C(=O)N[C@H]1CC(=O)NCCCC[C@@H](C(N)=O)NC(=O)[C@H](Cc2c[nH]c3ccccc23)NC(=O)[C@H](CCCNC(=N)N)NC(=O)[C@@H](Cc2ccccc2)NC(=O)[C@H](CCC(N)=O)NC1=O` [Peptide No. 32, Ac-Arg-cyclo(Asp-Gln- D-Phe-Arg-Trp-Lys)- NH2], the observed spontaneous erections result in assay [2] (subcutaneous, 1, 3 or 10 mg/kg) was “increase in observed spontaneous erections”. In addition, on hMC4-R (setting [5]), the Emax amounted to 98%. For the same compound, the “functional classification at MC4-R” value on hMC4-R was “agonist”.
Regarding `CC(=O)N[C@@H](CCCNC(=N)N)C(=O)N[C@H]1CCCCNC(=O)C[C@@H](C(N)=O)NC(=O)[C@H](Cc2ccc3ccccc3c2)NC(=O)[C@H](CCCNC(=N)N)NC(=O)[C@@H](Cc2ccccc2)NC(=O)[C@H](CC(N)=O)NC1=O` [compound 162, Ac-Arg-cyclo(Lys-Asn- D-Phe-Arg-Nal 2-Asp)- NH2] (HELM PEPTIDE1{[ac].R.K.N.[dF].R.[O=C([C@H](Cc1ccc2ccccc2c1)N[*:1])[*:2]].D.[am]}$PEPTIDE1,PEPTIDE1,3:R3-8:R3$$$V2.0), the Emax on hMC1-R came to 89%; at hMC4-R (setting [3]) it was 82%.

The values above are taken from patent US10632171B2, “Melanocortin receptor-specific peptides” (Palatin Technologies, Inc., priority 2009, dated 2020).
